# Assay results as given in patent publication EP4321023A1, “MOSQUITO REPELLENT COMPOSITION COMPRISING YARROW ESSENTIAL OIL” (National Hellenic Research Foundation, priority 2022, dated 2024).
# Assays:
# Epiderm™ tissues = assay: EpiDerm skin irritation test (EPI-200-SIT), MTT tissue viability; assay type: cell-based, human
# Source text: The EpiDerm™ skin irritation test kit (Schafer-Korting, Bock et al., 2008) (EPI-200-SIT) was purchased by MatTek (https://www.mattek.com/) and used in this study. The value of this method lies in that it provides in vivo prediction for classification testing of the nano-emulsions as irritant or non-irritant, based on in vitro results. According to the EU and GHS classification (R38/ Category 2 or no label), an irritant is predicted if the mean relative tissue viability of individual tissues exposed to the test substance is reduced below 50% of the mean viability of the negative controls run in parallel.
# The experimental procedure for the skin irritation test is the following. Fresh tissues are transferred onto 6-well plates and pre-incubated under standard culture conditions for 1 hour in the assay medium (DMEM based medium, MatTek). Then, the assay medium is replaced by fresh assay medium, and tissues are incubated overnight. […] Then, the blue formazan salt formed by cellular mitochondria is extracted with 2.0 ml/tissue of isopropanol (extractant solution, part # MTT-100-EXT) and the optical density of the extracted formazan is determined at 570 nm using a spectrophotometer. Relative tissue viability is calculated for each tissue as % of the mean viability of the negative control tissues. […]
# EpiOcular™ tissues = assay type: cell-based; settings: human, 30 min, 200 µg EO/cm^2
# Experimental: The EpiOcular™ eye irritation test (Stern, Klausner et al., 1998) (OCL-200-EIT) purchased by MatTek was used in this study to evaluate the eye irritation potential of nano-emulsion 1 of Example 2 (Yarrow essential oil (2% Achillea millefolium essential oil)) or of nano-emulsion 2 of Example 2 (mixture of 1% Yarrow essential oil (Achillea millefolium essential oil) with 1% Lavandin oil (Hybrid Lavandula intermedia essential oil) [1:1 w/w]).
# Fresh tissues are equilibrated at RT for 15 min, then, transferred onto 6-well plates and pre-incubated at standard culture conditions for 1 hour in assay medium, which is DMEM based medium (MatTek), then, replaced, and tissues are incubated overnight under standard culture conditions. The tissues are prehydrated with Ca^++Mg^++Free-DPBS and incubated at standard culture conditions for 30±2 min. Each nano-emulsion (dose: 200 µg EO/cm^2) and control samples are applied topically on the EpiOcular™ tissues. The tissues are incubated for 30±2 min followed by removal of the nano-emulsions by extensive rinsing of the tissues with Ca^++Mg^++Free-DPBS. […] Finally, the MTT assay is performed, and the relative tissue viability is calculated for each tissue as % of the mean viability of the negative control tissues. […]
# 3D human skin tissues = assay: Histological analysis (eosin and hematoxylin) after 48 h topical application; assay type: cell-based; settings: dose 200 µg EO/cm^2, 48 hours; Figure 8
# Experimental: Following topical application of nano-emulsion 1 of Example 2 (Yarrow essential oil (2% Achillea millefolium essential oil)) or of nano-emulsion 2 of Example 2 (mixture of 1% Yarrow essential oil (Achillea millefolium essential oil) with 1% Lavandin oil (Hybrid Lavandula intermedia essential oil) [1:1 w/w]) on 3D human skin tissues, for 48 hours, skin specimens are collected and further processed for: [1] histological analysis (Furio, Pampalakis et al., 2015) and [2] molecular analysis.
# First, 3D-reconstructed human skin tissue culture media is replaced with fresh, pre-warmed media. Under sterile conditions, tissues are exposed topically to each test nano-emulsion (dose, 200 µg EO/cm^2). 5% SDS a widely known skin irritant was used as positive control. […] Alternatively, total RNA was extracted from 3D human skin tissues (Macherey-Nagel) to quantify relative expression of tight junction proteins with the aim to test for potential alterations in expression levels (Figure 9 ). Then, synthesized cDNAs (SuperScript™ First-Strand Synthesis System for RT-PCR, Invitrogen) were used as template for RT-qPCR (SYBR™ Select, Applied Biosystems) to quantify the relative expression levels of tight junction proteins encoding genes using the gene-specific primers enlisted in Table 8. […]
structure (smiles),measurement,setting,value
"COC(C)=O [PC, methyl acetate]",Classification,"Epiderm™ tissues; skin irritation, prediction model developed by MatTek","I, qualified (I, irritant)"
same,"Mean of viabilities, %","Epiderm™ tissues; skin, dose 200 µg EO/cm^2, 60±1 min exposure, % of mean viability of negative control, 2 tissues",2.828%
same,"Mean of viabilities, %",EpiOcular™ tissues,13.46%
same,skin morphology by eosin and hematoxylin staining,3D human skin tissues,high degree of damage
